Measured values from the NIST ThermoML archive (doi:10.1016/j.jct.2011.07.003).
Values joined by “and” are separate entries in the source; they are usually repeats but may differ in a detail not shown here. Identical values can stand only once. Numbers after ± are expanded uncertainties.

Settings: Calculated from knudsen effusion weight loss

Row | Structure (SMILES) | vapor or sublimation pressure (321.79 K, Crystal) | vapor or sublimation pressure (328.88 K, Crystal) | vapor or sublimation pressure (337.2 K, Crystal) | vapor or sublimation pressure (345.77 K, Crystal) | vapor or sublimation pressure (352.86 K, Crystal) | vapor or sublimation pressure (360.64 K, Crystal) | vapor or sublimation pressure (295.73 K, Crystal 2) | vapor or sublimation pressure (302.13 K, Crystal 2) | vapor or sublimation pressure (307.66 K, Crystal 2) | vapor or sublimation pressure (313.1 K, Crystal 2) | vapor or sublimation pressure (318.47 K, Crystal 2) | vapor or sublimation pressure (323 K, Crystal 2) | vapor or sublimation pressure (328.2 K, Crystal 2) | vapor or sublimation pressure (332.95 K, Crystal 2)
1 | c1ccc2cc3ccccc3cc2c1 [anthracene] | 1.7e-05 ± 1e-06 kPa and 1.8e-05 ± 1e-06 kPa and 1.9e-05 ± 1e-06 kPa | 3.9e-05 ± 2e-06 kPa and 3.7e-05 ± 2e-06 kPa and 4e-05 ± 2e-06 kPa | 9.3e-05 ± 5e-06 kPa [middle of 7 runs] | 0.000236 ± 1.2e-05 kPa [middle of 6 runs] | 0.000473 ± 2.4e-05 kPa [middle of 6 runs] | 0.000988 ± 4.9e-05 kPa [middle of 5 runs] | – | – | – | – | – | – | – | –
2 | c1ccc2c(c1)ccc1ccccc12 [phenanthrene] | – | – | – | – | – | – | 1.4e-05 ± 1e-06 kPa and 1.5e-05 ± 1e-06 kPa | 3.2e-05 ± 2e-06 kPa and 3.1e-05 ± 2e-06 kPa | 6.1e-05 ± 3e-06 kPa and 6.4e-05 ± 3e-06 kPa and 6.2e-05 ± 3e-06 kPa | 0.000118 ± 6e-06 kPa and 0.000119 ± 6e-06 kPa | 0.000208 ± 1e-05 kPa [middle of 6 runs] | 0.000341 ± 1.7e-05 kPa [middle of 5 runs] | 0.00059 ± 3e-05 kPa [middle of 6 runs] | 0.000959 ± 4.8e-05 kPa [middle of 6 runs]
